# Source: patent US20110280958A1 (priority 2010, published 2011)
# Experiments:
# Venturia inaequalis = assay: Venturia test (apples)/preventive; type: in vivo; settings: preventive spray, evaluated 10 days after inoculation
# Experimental: Solvent: 24.5 parts by weight of acetone • 24.5 parts by weight of dimethylacetamide
# Emulsifier: 1 part by weight of alkylaryl polyglycol ether
# To produce a suitable preparation of active compound, 1 part by weight of active compound is mixed with the stated amounts of solvent and emulsifier, and the concentrate is diluted with water to the desired concentration. To test for preventive activity, young plants are sprayed with the preparation of active compound at the stated rate of application. After the spray coating has dried on, the plants are inoculated with an aqueous conidia suspension of the causal agent of apple scab (Venturia inaequalis) and then remain for 1 day in an incubation cabinet at approximately 20° C. and a relative atmospheric humidity of 100%. The plants are then placed in a greenhouse at approximately 21° C. and a relative atmospheric humidity of approximately 90%. The test is evaluated 10 days after the inoculation. 0% means an efficacy which corresponds to that of the untreated control, while an efficacy of 100% means that no disease is observed.
# Alternaria solani = settings: in vivo
# Phytophthora infestans = settings: in vivo
SMILES,Efficacy in % found (Venturia inaequalis; 250 ppm a.i.),Efficacy in % found (Alternaria solani),Efficacy in % found (Phytophthora infestans),Efficacy in % found (Venturia inaequalis; 25 ppm a.i.)
"O=S(=O)([O-])[O-].[Fe+2] [(3-3), iron sulphate]",43%,35%,,
"O=S(=O)([O-])[O-].[Zn+2] [(3-7), zinc sulphate]",19%,23%,35%,
"Cn1c(=O)c2sc3c(=O)n(C)c(=O)c3sc2c1=O [(I-1), 2,6-dimethyl-1H,5H-[1,4]dithiino[2,3-c:5,6-c′]dipyrrole-1,3,5,7(2H,6H)-tetrone]",,,9%,32%
"O=S(=O)([O-])[O-].[Mn+2] [(3-2), manganese sulphate]",,0%,0%,
"O=S(=O)([O-])[O-].[Mg+2] [(1-2), magnesium sulphate]",,0%,,
